In patent US20230027854A1, “ISOXAZOLE DERIVATIVES TARGETING TACC3 AS ANTICANCER AGENTS” (A2A Pharmaceuticals, inc., priority 2019, published 2023):

System: JIMT-1 cells
Experiment: JIMT-1 cell growth inhibition / cell viability (SRB assay)
Format: cell-based
Conditions: Homo sapiens; JIMT-1 cells; read-out: IC50
Experimental: The ability of the compounds of the present disclosure to treat TACC3-mediated cancers, or associated symptoms or complications thereof, was determined using the following procedures. The compounds of the present disclosure were tested for their activity against cell death induction using a JIMT-1 cell line, which was a cell line having high level of TACC3. The concentration of each compound that was required for half-maximal inhibition of cell proliferation was calculated by a GraphPad Prism (GraphPad Software).

SMILES | IC50 [µM]
c1cc(Nc2cc(-c3ccc4c(c3)OCO4)no2)nc(N2CCOCC2)n1 [Compound 26, 3-(benzo[d][1,3]dioxol-5-yl)-N-(2-morpholinopyrimidin-4-yl)isoxazol-5-amine] | 0.87
COc1ccc(-c2cc(Nc3ccnc(N4CCOCC4)n3)on2)cn1 [Compound 27, 3-(6-methoxypyridin-3-yl)-N-(2-morpholinopyrimidin-4-yl)isoxazol-5-amine] | 7.3
Oc1ccc(-c2cc(Nc3ccnc(N4CCOCC4)n3)on2)cc1 [Compound 30, 4-(5-((2-morpholinopyrimidin-4-yl)amino)isoxazol-3-yl)phenol] | > 10
c1ccc(COc2ccc(-c3cc(Nc4ccnc(N5CCOCC5)n4)on3)cc2)cc1 [Compound 32, 3-(4-(benzyloxy)phenyl)-N-(2-morpholinopyrimidin-4-yl)isoxazol-5-amine] | > 10
COc1ccc(-c2cc(Nc3ccnc(N4C[C@@H](C)O[C@@H](C)C4)n3)on2)cc1 [Compound 33, N-(2-((2R,6S)-2,6-dimethylmorpholino)pyrimidin-4-yl)-3-(4-methoxyphenyl)isoxazol-5-amine] | 0.23
COc1ccc(-c2cc(Nc3ccnc(N4C5CCC4COC5)n3)on2)cc1 [Compound 34, N-(2-(3-oxa-8-azabicyclo[3.2.1]octan-8-yl)pyrimidin-4-yl)-3-(4-methoxyphenyl)isoxazol-5-amine] | 0.16
COc1ccc(-c2cc(Nc3ccnc(N4CC5CCC(C4)O5)n3)on2)cc1 [Compound 35, N-(2-(8-oxa-3-azabicyclo[3.2.1]octan-3-yl)pyrimidin-4-yl)-3-(4-methoxyphenyl)isoxazol-5-amine] | 3.09
COc1ccc(-c2cc(Nc3ccnc(N4C[C@@H]5C[C@H]4CO5)n3)on2)cc1 [Compound 36, N-(2-((1S,4S)-2-oxa-5-azabicyclo[2.2.1]heptan-5-yl)pyrimidin-4-yl)-3-(4-methoxyphenyl)isoxazol-5-amine] | 2.02
COc1ccc(-c2cc(Nc3ccnc(N4C[C@H]5C[C@@H]4CO5)n3)on2)cc1 [Compound 37, N-(2-((1R,4R)-2-oxa-5-azabicyclo[2.2.1]heptan-5-yl)pyrimidin-4-yl)-3-(4-methoxyphenyl)isoxazol-5-amine] | 0.48
COc1ccc(-c2cc(Nc3ccnc(N4CCC(F)CC4)n3)on2)cc1 [Compound 38, N-(2-(4-fluoropiperidin-1-yl)pyrimidin-4-yl)-3-(4-methoxyphenyl)isoxazol-5-amine] | 0.13
COc1ccc(-c2cc(Nc3ccnc(N4CCC(F)(F)CC4)n3)on2)cc1 [Compound 39, N-(2-(4,4-difluoropiperidin-1-yl)pyrimidin-4-yl)-3-(4-methoxyphenyl)isoxazol-5-amine] | 0.37
COc1ccc(-c2cc(Nc3ccnc(N4CCSCC4)n3)on2)cc1 [Compound 40, 3-(4-methoxyphenyl)-N-(2-thiomorpholinopyrimidin-4-yl)isoxazol-5-amine] | 0.113
COc1ccc(-c2cc(Nc3ccnc(N4CCS(=O)(=O)CC4)n3)on2)cc1 [Compound 41, 4-(4-((3-(4-methoxyphenyl)isoxazol-5-yl)amino)pyrimidin-2-yl)thiomorpholine 1,1-dioxide] | > 10
COc1ccc(-c2cc(Nc3ccnc(N4CCCCC4)n3)on2)cc1 [Compound 42, 3-(4-methoxyphenyl)-N-(2-(piperidin-1-yl)pyrimidin-4-yl)isoxazol-5-amine] | 0.116
COc1ccc(-c2cc(Nc3ccnc(N4CCC(C)CC4)n3)on2)cc1 [Compound 43, 3-(4-methoxyphenyl)-N-(2-(4-methylpiperidin-1-yl)pyrimidin-4-yl)isoxazol-5-amine] | 0.204
COc1ccc(-c2cc(Nc3ccnc(N4CCC(C(F)(F)F)CC4)n3)on2)cc1 [Compound 44, 3-(4-methoxyphenyl)-N-(2-(4-(trifluoromethyl)piperidin-1-yl)pyrimidin-4-yl)isoxazol-5-amine] | 0.056

SMILES | IC50 [µM]
COc1ccc(-c2cc(Nc3ccnc(N4CCCC4)n3)on2)cc1 [Compound 45, 3-(4-methoxyphenyl)-N-(2-(pyrrolidin-1-yl)pyrimidin-4-yl)isoxazol-5-amine] | 0.105
COc1ccc(-c2cc(Nc3ccnc(N4CCC(CCO)CC4)n3)on2)cc1 [Compound 46, 2-(1-(4-((3-(4-methoxyphenyl)isoxazol-5-yl)amino)pyrimidin-2-yl)piperidin-4-yl)ethan-1-ol] | 3.97
COc1ccc(-c2cc(Nc3ccnc(N4CCN(CCO)CC4)n3)on2)cc1 [Compound 47, 2-(4-(4-((3-(4-methoxyphenyl)isoxazol-5-yl)amino)pyrimidin-2-yl)piperazin-1-yl)ethan-1-ol] | > 10
COc1ccc(-c2cc(Nc3ccnc(N4CCN(C)CC4)n3)on2)cc1 [Compound 48, 3-(4-methoxyphenyl)-N-(2-(4-methylpiperazin-1-yl)pyrimidin-4-yl)isoxazol-5-amine] | 1.56
COc1ccc(-c2cc(Nc3ccnc(N4CCNCC4)n3)on2)cc1 [Compound 49, 3-(4-methoxyphenyl)-N-(2-(piperazin-1-yl)pyrimidin-4-yl)isoxazol-5-amine] | > 10
CCOC(=O)C1CCN(c2nccc(Nc3cc(-c4ccc(OC)cc4)no3)n2)CC1 [Compound 50, Ethyl 1-(4-((3-(4-methoxyphenyl)isoxazol-5-yl)amino)pyrimidin-2-yl)piperidine-4-carboxylate] | > 10
COc1ccc(-c2cc(Nc3ccnc(N4CCC(C(=O)O)CC4)n3)on2)cc1 [Compound 51, 1-(4-((3-(4-methoxyphenyl)isoxazol-5-yl)amino)pyrimidin-2-yl)piperidine-4-carboxylic acid] | > 10
COc1ccc(-c2cc(Nc3nc(N4CCC(F)CC4)ncc3Cl)on2)cc1 [Compound 59, N-(5-chloro-2-(4-fluoropiperidin-1-yl)pyrimidin-4-yl)-3-(4-methoxyphenyl)isoxazol-5-amine] | 0.8
COc1ccc(-c2cc(Nc3nc(N4CCC(F)CC4)ncc3F)on2)cc1 [Compound 60, N-(5-fluoro-2-(4-fluoropiperidin-1-yl)pyrimidin-4-yl)-3-(4-methoxyphenyl)isoxazol-5-amine] | 0.54
COc1ccc(-c2cc(Nc3cc(C)nc(N4CCC(F)CC4)n3)on2)cc1 [Compound 61, N-(2-(4-fluoropiperidin-1-yl)-6-methylpyrimidin-4-yl)-3-(4-methoxyphenyl)isoxazol-5-amine] | 1
COc1ccc(-c2cc(N(C)c3ccnc(N4CCOCC4)n3)on2)cc1 [Compound 63, 3-(4-methoxyphenyl)-N-methyl-N-(2-morpholinopyrimidin-4-yl)isoxazol-5-amine] | 0.16
CN(C)c1ccc(-c2cc(Nc3ccnc(N4CCC(F)CC4)n3)on2)cc1 [Compound 64, 3-(4-(dimethylamino)phenyl)-N-(2-(4-fluoropiperidin-1-yl)pyrimidin-4-yl)isoxazol-5-amine] | 0.157
COc1ccc(-c2cc(Nc3ccnc(N4CCC(F)CC4)n3)on2)cc1F [Compound 65, 3-(3-fluoro-4-methoxyphenyl)-N-(2-(4-fluoropiperidin-1-yl)pyrimidin-4-yl)isoxazol-5-amine] | 0.145
COc1ccc(-c2cc(Nc3ccnc(N4C5CCC4COC5)n3)on2)cc1F [Compound 66, N-(2-(3-oxa-8-azabicyclo[3.2.1]octan-8-yl)pyrimidin-4-yl)-3-(3-fluoro-4-methoxyphenyl)isoxazol-5-amine] | 0.053
COc1ccc(-c2cc(Nc3ccnc(N4CCCC4)n3)on2)cc1F [Compound 67, 3-(3-fluoro-4-methoxyphenyl)-N-(2-(pyrrolidin-1-yl)pyrimidin-4-yl)isoxazol-5-amine] | 0.049

System: JIMT-1 cells
Experiment: Western blot of mitotic arrest, DNA damage and apoptosis markers
Format: cell-based, human
Conditions: 24 hours, dose response
Experimental: JIMT-1, MDA-MB-436, MDA-MB-157 and BT-474 T-DM1R cell lines were tested with respect to their response to these three drugs. […] Although higher KHS101 doses was included, which were used by others (Campo & Breuer, 2018), an induction of these markers was only observed at very high doses.

SMILES | induction of mitotic arrest, DNA damage and apoptosis markers
CC(C)CNc1ccnc(NCc2csc(-c3ccccc3)n2)n1 [KHS101, reference compound] | considerably higher doses
